Consider seven compounds from PubChem BioAssay (NCI).

Common to all, as to assay: NCI tumour cell line growth inhibition, 48 h
The subject of assay [1] is HCC-2998 colon.
Assay [2] has as its system HCT-15 colon.
For assay [3], the system named is HT29 colon.
The subject of assay [4] is M14 melanoma.
Assay [5] relates to MCF7 breast.
The test system of assay [6] is OVCAR-3 ovarian.
Assay [7] deals with OVCAR-8 ovarian.
Assay [8] deals with RXF 393 renal.
The test system of assay [9] is SN12C renal.
Assay [10] deals with SR leukemia.

Values joined by “and” are separate entries in the source; they are usually repeats but may differ in a detail not shown here. Equal values may be shown once.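 Compound exposure: 48 hours, 5 concentrations, 96-well plates. GI50 marks 50% less growth. TGI is the concentration that stops growth completely.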

On to `Cc1nc([P+](c2ccccc2)(c2ccccc2)c2ccccc2)c(Sc2sc(-c3ccccc3)nc2[P+](c2ccccc2)(c2ccccc2)c2ccccc2)o1`, for which the GI50 in assay [1] is 2 µM; in assay [2], 2.15 µM; in [3] it was 0.861 µM; in assay [4], 1.21 µM; in assay [5], 0.669 µM; in assay [6], 0.76 µM. The GI50 in assay [7] is 0.867 µM; in assay [8], 1.78 µM; in assay [9], 1.72 µM; in [10] it was 0.372 µM. In addition, the TGI in assay [1] amounted to 6.22 µM; in assay [2], 7.68 µM; in assay [3], 10.6 µM; in [4], 5.3 µM; in assay [5], 4.81 µM; in [6] it was 3.29 µM. For the same compound, the TGI came out at 11.6 µM in assay [7], 5.26 µM in [8], 6.88 µM in assay [9] and 17.2 µM in [10].
Regarding `COc1ccc(C2CC(c3cccc(Nc4ccnc5cc(Cl)ccc45)c3)=NN2C=O)cc1` (stereo not given), the GI50 was 1.68 µM in [1]; 0.541 µM in assay [2]; 0.349 µM in [3]; 0.374 µM in [4]; 0.361 µM in assay [5]; 0.383 µM in [6]. The GI50 in assay [7] was 1.12 µM; in assay [8], 0.883 µM; in assay [9], 0.807 µM; in assay [10], 0.271 µM. In addition, the TGI was > 100 µM in assay [1]; > 100 µM in assay [2]; 1.54 µM in [3]; 21.2 µM in [4]; > 100 µM in assay [5]; 3.59 µM in assay [6]. The TGI in [7] was > 100 µM; in [8] it was 7.39 µM; in assay [9], > 100 µM; in assay [10] it was 2.04 µM.
Turning to `CN(c1ncccc1CNc1nc(Nc2ccc3c(c2)CC(=O)N3)ncc1C(F)(F)F)S(C)(=O)=O`, the GI50 was 1.41 µM and 1.8 µM in assay [1]; 5.14 µM and 4.9 µM in assay [2]; 1.75 µM and 2.33 µM in [3]; 1.87 µM and 2.91 µM in assay [4]; 0.948 µM and 1.1 µM in assay [5]; 2.42 µM and 2.81 µM in assay [6]. Further, the GI50 was 2.41 µM and 3.38 µM in assay [7]; 1.61 µM and 1.48 µM in assay [8]; 2.88 µM and 2.95 µM in [9]; 0.606 µM and 1.54 µM in assay [10]. The TGI in [1] is 7.28 µM and 9.71 µM; in assay [2], > 80.5 µM; in assay [3], 4.79 µM and 8.54 µM; in assay [4] it was 5.49 µM and > 10 µM; in [5], > 27 µM; in assay [6], > 26.9 µM. The TGI in [7] is > 64.6 µM; in assay [8], 3.98 µM and 4.08 µM; in assay [9] it was > 100 µM; in [10], 4.91 µM and 5.26 µM.
Turning to `NS(=O)(=O)c1ccc(Nc2cc(-c3cccc(O)c3)[nH]n2)cc1`, the GI50 in assay [1] was > 25 µM; in assay [2], > 25 µM; in assay [3], > 25 µM; in [4], > 25 µM; in assay [5] it was > 25 µM; in [6], 16.2 µM. Further, the GI50 in assay [7] is > 22.6 µM; in assay [8] it was > 25 µM; in assay [9], > 25 µM; in assay [10], 24.2 µM. Besides, the TGI in assay [1], in assay [2], in [3], in assay [4], in assay [5] and in assay [6] was > 25 µM each time. For the same compound, the TGI in assay [7], in [8], in assay [9] and in [10] was > 25 µM throughout.
For the compound `CCN(CCCN(C)C)Cc1cc(I)cc(C)c1O`, the GI50 in [1] is 16.1 µM; in assay [2], 21.5 µM; in assay [3], 14.7 µM; in [4], 16.6 µM; in [5] it was 17.4 µM; in assay [6], 26.7 µM. The GI50 in assay [7] is 34.2 µM; in [8] it was 17.1 µM; in [9] it was 59.9 µM; in assay [10], 1.04 µM. The TGI in assay [1] was 32.2 µM; in assay [2], 49.4 µM; in [3] it was 32.4 µM; in assay [4], 31 µM; in assay [5], 35.8 µM; in [6] it was > 100 µM. Further, the TGI in assay [7] is > 100 µM; in [8], 51.1 µM; in [9], > 100 µM; in assay [10] it was 14.5 µM.
Take `COc1ccc(/C=C/C(=O)c2cc(OC)c(OC)c(OC)c2)cc1OCC(=O)Nc1nc2ccc(OC(F)(F)F)cc2s1`: the GI50 was 6.18 µM in assay [1]; 0.407 µM in [2]; 3.66 µM in assay [3]; 1.72 µM in assay [4]; 1.32 µM in assay [5]; 1.52 µM in assay [6]. Also, the GI50 is 1.54 µM in assay [7], 1.58 µM in assay [8], 1.74 µM in [9] and 0.391 µM in assay [10]. For the same compound, the TGI was 25.1 µM in assay [1]; 10.9 µM in assay [2]; 79.4 µM in assay [3]; 4.52 µM in assay [4]; 7.77 µM in [5]; 3.14 µM in assay [6]. Further, the TGI is 3.89 µM in assay [7], 3.74 µM in [8], 4.67 µM in [9] and 3.66 µM in assay [10].
As to `CC(=O)Nc1ccc2c(c1)C(c1ccccc1Cl)=Nc1c(n[nH]c1C)N2`, the GI50 in assay [1] was 16.7 µM; in assay [2], 10.8 µM; in [3], 4.45 µM; in assay [4], > 25 µM; in [5], 2.26 µM; in assay [6], 9.06 µM. The GI50 in [7] is 13.4 µM; in assay [8], 1.02 µM; in assay [9] it was 5.05 µM; in assay [10], 1.16 µM. The TGI in assay [1], in [2], in assay [3], in [4], in assay [5] and in [6] was > 25 µM each time. The TGI in assay [7] was > 25 µM; in assay [8], 9.59 µM; in assay [9], > 25 µM; in [10], > 25 µM.
